Measurements from US7737143B2, “Substituted pyrazines as kinase inhibitors” (YM Biosciences Australia Pty Ltd, priority 2003, dated 2010).

Assays:
Type in all cases: biochemical
human JAK2 = biological target: T1, human JAK2 (Homo sapiens, UniProt O60674); assay: JAK kinase assay (ELISA or Alphascreen), Jak2; conditions: standard conditions, read-out: Jak2 inhibition of enzyme activity
T1 construct: The kinase domain of human JAK2 was amplified from U937mRNA; His tag (pFastBac HTc vector; nickel chelate purification) (N); made in house; host or cells: baculovirus; Sf9 for virus, High Five insect cells for production
T1 sequence (O60674 849-1124 limits assumed): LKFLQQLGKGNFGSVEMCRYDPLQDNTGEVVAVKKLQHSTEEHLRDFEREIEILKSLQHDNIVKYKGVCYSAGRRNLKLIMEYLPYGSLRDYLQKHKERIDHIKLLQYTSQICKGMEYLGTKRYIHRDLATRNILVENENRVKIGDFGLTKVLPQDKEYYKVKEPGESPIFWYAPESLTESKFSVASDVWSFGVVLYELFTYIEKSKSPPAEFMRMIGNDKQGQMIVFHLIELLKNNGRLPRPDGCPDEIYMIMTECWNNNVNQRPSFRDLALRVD
Description: The kinase domain of human JAK2 was amplified from U937mRNA using the polymerase chain reaction with the following primers: […]
JAK2 PCR products were cloned into the pFastBac HTc expression vector (Gibco) via the Sal I and Not I sites. The JAK2 plasmid was then transformed into competent DHL10Bac cells (Gibco), and the recombinant baculovirus produced prepared for transfection into Sf9 insect cells.
(§1) Baculovirus preparations from each of the JAK family members were infected into five litres of High Five cells (Invitrogen) grown in High Five serum free medium (Invitrogen) to a cell density of approximately 1-2×10^6 cells/ml. Cells are infected with virus at a MOI of 0.8-3.0. Cells were harvested and lysed. JAK kinase domains were purified by affinity chromatography on a Probond (Invitrogen) nickel chelate affinity column.
(§2) Kinase assays were performed either in a 96 well capture-based ELISA assay or in 384 well Optiplates (Packard) using an Alphascreen Protein Tyrosine Kinase kit. In either case using approximately 15 μg of affinity purified PTK domain in the presence of 50 mM HEPES, pH 7.5, 10 mM MgCl2 150 mM NaCl and 10 μM-1 mM ATP. The biotinylated substrate biotin-EGPWLEEEEEAYGWMDF-NH2 (final concentration 5 μM) was used as substrate. In the ELISA assay tyrosine phosphorylation was quantitated following transfer to an avidin coated ELISA plate using peroxidase-linked anti-phospho-tyrosine antibody PY20. In the Alphascreen assay, Alphascreen phosphotyrosine acceptor beads followed by streptavidin donor beads were added under subdued light. The ELISA plates were read on a BMG Fluorostar, the Alphascreen plates were read on a Packard Fusion Alpha. Inhibitors were added to the assays fifteen minutes prior to the addition of ATP. Inhibitors were added in aqueous DMSO, with DMSO concentrations never exceeding 1%.

human JAK3 = biological target: T2, human JAK3 (Homo sapiens, UniProt P52333); assay: JAK kinase assay (ELISA or Alphascreen), Jak3; conditions: standard conditions, read-out: Jak3 inhibition of enzyme activity
T2 construct: The kinase domain of human JAK3 was amplified from U937mRNA; His tag (pFastBac HTb vector; nickel chelate purification) (N); made in house; host or cells: baculovirus; Sf9 for virus, High Five insect cells for production
T2 sequence (P52333 822-1111 limits assumed): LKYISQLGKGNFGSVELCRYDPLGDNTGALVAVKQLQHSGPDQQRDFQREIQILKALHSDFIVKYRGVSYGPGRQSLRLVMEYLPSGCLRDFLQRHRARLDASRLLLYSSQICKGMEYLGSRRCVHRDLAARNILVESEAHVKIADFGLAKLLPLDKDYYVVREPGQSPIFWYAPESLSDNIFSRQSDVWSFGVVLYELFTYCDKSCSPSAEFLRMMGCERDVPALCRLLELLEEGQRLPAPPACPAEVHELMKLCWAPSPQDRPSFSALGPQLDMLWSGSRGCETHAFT
Description: The kinase domain of human JAK3 was amplified from U937mRNA using the polymerase chain reaction with the following primers: […]
JAK3 PCR products were cloned into the pFastBac HTb expression vector (Gibco) via the Xho I and Kpn I sites. The JAK3 plasmid was then transformed into competent DH10Bac cells (Gibco), and the recombinant baculovirus produced prepared for transfection into Sf9 insect cells.
as §1, §2

zap70 = biological target: T3, zap70 (Homo sapiens, UniProt P43403); assay: Kinase assay (ELISA or Alphascreen), zap70; conditions: standard conditions, read-out: zap70 inhibition of enzyme activity
T3 sequence (P43403 338-600 limits assumed): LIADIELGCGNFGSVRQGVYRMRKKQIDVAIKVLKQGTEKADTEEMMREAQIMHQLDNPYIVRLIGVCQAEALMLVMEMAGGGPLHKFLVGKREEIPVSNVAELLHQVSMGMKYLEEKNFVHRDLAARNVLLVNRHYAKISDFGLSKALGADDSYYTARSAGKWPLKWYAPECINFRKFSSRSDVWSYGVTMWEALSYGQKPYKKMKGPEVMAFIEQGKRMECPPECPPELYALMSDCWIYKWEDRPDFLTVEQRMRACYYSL
Experimental: as §2

kdr = kdr (Homo sapiens, UniProt P35968); assay: Kinase assay (ELISA or Alphascreen), kdr; conditions: standard conditions, read-out: kdr inhibition of enzyme activity
kdr, sequence (P35968 834-1162 limits assumed, species assumed): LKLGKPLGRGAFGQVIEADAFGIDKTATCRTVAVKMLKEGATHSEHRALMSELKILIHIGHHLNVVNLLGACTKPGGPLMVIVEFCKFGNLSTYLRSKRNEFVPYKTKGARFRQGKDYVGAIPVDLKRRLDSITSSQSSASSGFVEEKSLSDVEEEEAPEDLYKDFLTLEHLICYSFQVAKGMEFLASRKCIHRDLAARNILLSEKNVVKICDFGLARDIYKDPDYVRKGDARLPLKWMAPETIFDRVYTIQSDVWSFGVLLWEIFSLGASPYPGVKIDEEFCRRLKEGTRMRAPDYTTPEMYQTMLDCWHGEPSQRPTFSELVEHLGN
Experimental: as §2

hck = hck (Homo sapiens, UniProt P08631); assay: Kinase assay (ELISA or Alphascreen), hck; conditions: standard conditions, read-out: hck inhibition of enzyme activity
hck, sequence (P08631 262-515 limits assumed, species assumed): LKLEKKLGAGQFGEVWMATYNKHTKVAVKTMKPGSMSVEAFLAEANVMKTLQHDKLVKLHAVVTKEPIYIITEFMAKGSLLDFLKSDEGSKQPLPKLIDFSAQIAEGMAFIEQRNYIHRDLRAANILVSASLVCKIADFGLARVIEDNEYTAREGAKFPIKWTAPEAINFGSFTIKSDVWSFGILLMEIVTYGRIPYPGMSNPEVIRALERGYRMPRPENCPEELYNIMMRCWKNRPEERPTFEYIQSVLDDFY
Experimental: as §2

tie2 = tie2 (Homo sapiens, UniProt Q02763); assay: Kinase assay (ELISA or Alphascreen), tie2; conditions: standard conditions, read-out: tie2 inhibition of enzyme activity
tie2, sequence (Q02763 824-1096 limits assumed, species assumed): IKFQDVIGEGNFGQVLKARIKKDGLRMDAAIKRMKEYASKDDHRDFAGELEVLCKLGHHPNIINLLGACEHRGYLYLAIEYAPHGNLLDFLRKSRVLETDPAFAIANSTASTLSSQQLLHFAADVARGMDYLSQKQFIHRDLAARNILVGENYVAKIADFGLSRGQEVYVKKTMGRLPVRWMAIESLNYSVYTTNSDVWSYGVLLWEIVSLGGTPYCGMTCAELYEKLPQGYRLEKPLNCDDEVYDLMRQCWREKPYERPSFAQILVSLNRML
Experimental: as §2

Row | SMILES | inhibition at 20 µM (human JAK2) | inhibition at 20 µM (human JAK3) | inhibition at 20 µM (zap70) | inhibition at 20 µM (kdr) | inhibition at 20 µM (hck) | inhibition at 20 µM (tie2)
1 | CO/C=C\N(C)CCCCNC(=O)c1ccc2ncn(-c3cncc(N[C@@H](C)c4ccccc4)n3)c2c1 | ≥ 50% | ≥ 50% | ≥ 50% | ≥ 50% | – | –
2 | C[C@H](Nc1cncc(-n2cnc3cc(NC(=O)c4ccc(CN5CCN(C)CC5)cc4)ccc32)n1)c1ccccc1 | < 50% | < 50% | ≥ 50% | – | ≥ 50% | –
3 | Nc1ccc(-c2cncc(-n3cnc4ccccc43)n2)cc1 | ≥ 50% | < 50% | ≥ 50% | – | – | –
4 | CC(Nc1cncc(N2CNc3cc(CN4CCN(C)CC4)ccc32)n1)c1ccc(F)cc1 (stereo not drawn) | < 50% | < 50% | – | ≥ 50% | – | –
5 | CCN(CC)Cc1ccc2c(c1)ncn2-c1cncc(NC(C)c2ccc(F)cc2)n1 (stereo not drawn) | < 50% | < 50% | – | ≥ 50% | – | –
6 | CC(Nc1cncc(-n2cnc3cc(CN(C)C)ccc32)n1)c1ccc(F)cc1 (stereo not drawn) | < 50% | < 50% | – | ≥ 50% | – | –
7 | CC(Nc1cncc(-n2cnc3cnccc32)n1)c1ccc(F)cc1 (stereo not drawn) | ≥ 50% | < 50% | – | ≥ 50% | – | –
8 | C[C@H](Nc1cncc(-n2cnc3ccc(CN4CCNCC4)cc32)n1)c1ccc(F)cc1 | < 50% | ≥ 50% | – | – | – | ≥ 50%
9 | C[C@H](Nc1cncc(-n2cnc3ccc(CN4CCOCC4)cc32)n1)c1ccc(F)cc1 | ≥ 50% | < 50% | – | – | ≥ 50% | –
10 | C[C@H](Nc1cncc(-n2cnc3ccc(CN4CCCC4)cc32)n1)c1ccc(F)cc1 | ≥ 50% | < 50% | – | – | – | ≥ 50%
11 | C[C@H](Nc1cncc(-n2cnc3ccc(CN(CCO)CCO)cc32)n1)c1ccc(F)cc1 | ≥ 50% | < 50% | – | – | ≥ 50% | –
12 | N#Cc1ccc2ncn(-c3cncc(N[C@H]4CCc5ccccc54)n3)c2c1 | ≥ 50% | ≥ 50% | – | – | – | ≥ 50%
13 | N#Cc1ccc2c(c1)ncn2-c1cncc(N[C@H]2CCc3ccccc32)n1 | ≥ 50% | ≥ 50% | – | ≥ 50% | – | ≥ 50%
14 | C[C@H](Nc1cncc(-n2cnc3cc(-c4nn[nH]n4)ccc32)n1)c1ccc(F)cc1 | < 50% | < 50% | ≥ 50% | – | – | –
15 | C[C@H](Nc1cncc(-n2cnc3ccccc32)n1)c1ccc(F)cc1 | ≥ 50% | ≥ 50% | ≥ 50% | – | – | –
16 | CC(Nc1cncc(-n2cnc3cc(C#N)ccc32)n1)c1cccnc1 (stereo not drawn) | ≥ 50% | ≥ 50% | – | – | ≥ 50% | –
17 | CC(Nc1cncc(-n2cnc3ccc(C#N)cc32)n1)c1cccc(F)c1 (stereo not drawn) | ≥ 50% | ≥ 50% | – | – | ≥ 50% | –
18 | CC(Nc1cncc(-n2cnc3ccc(C#N)cc32)n1)c1cc(F)cc(F)c1 (stereo not drawn) | ≥ 50% | ≥ 50% | – | – | ≥ 50% | –
19 | CC(Nc1cncc(-n2cnc3cc(C#N)ccc32)n1)c1ccc(F)c(Cl)c1 (stereo not drawn) | ≥ 50% | < 50% | – | – | ≥ 50% | –
20 | Cc1ccc([C@H](C)Nc2cncc(-n3cnc4ccc(C#N)cc43)n2)cc1 | ≥ 50% | ≥ 50% | ≥ 50% | – | – | –
21 | COc1ccc2c(c1)CCC2Nc1cncc(-n2cnc3ccc(C#N)cc32)n1 (stereo not drawn) | < 50% | < 50% | – | – | ≥ 50% | –
22 | N#Cc1ccc2c(c1)ncn2-c1cncc(NC2CCc3cc(F)ccc32)n1 (stereo not drawn) | ≥ 50% | ≥ 50% | – | – | – | ≥ 50%
23 | Cc1ncc(-n2cnc3ccc(C#N)cc32)nc1N[C@@H](C)c1cccc(F)c1 | ≥ 50% | ≥ 50% | – | – | – | ≥ 50%
